# Experimental data published in US9012496B2, “Pharmaceutical compositions of (R)-1-(2,2-difluorobenzo[D][1,3]dioxol-5-yl)-N-(1-(2,3-dihydroxypropyl)-6-fluoro-2-(1-hydroxy-2-methylpropan-2-yl)-1H-indol-5-yl)cyclopropanecarboxamide and administration thereof” (Vertex Pharmaceuticals Incorported, priority 2012, dated 2015).
# Target: T1, ΔF508-CFTR (Homo sapiens, UniProt P13569, DEL508-508)
# T1 construct: expressed in transfected cells; host or cells: NIH3T3 mouse fibroblasts (optical membrane potential assay, whole-cell and single-channel recordings); Fisher rat epithelial (FRT) cells (Ussing chamber)
# Assay: Assays for detecting and measuring ΔF508-CFTR correction properties (membrane potential optical assay; electrophysiological assays)
# Type: cell-based
# Description: Assays for Detecting and Measuring ΔF508-CFTR Correction Properties of Compounds
# Membrane potential optical methods for assaying ΔF508-CFTR modulation properties of compounds.
# The optical membrane potential assay utilized voltage-sensitive FRET sensors described by Gonzalez and Tsien (See Gonzalez, J. E. and R. Y. Tsien (1995) “Voltage sensing by fluorescence resonance energy transfer in single cells” Biophys J 69(4): 1272-80, and Gonzalez, J. E. and R. Y. Tsien (1997) “Improved indicators of cell membrane potential that use fluorescence resonance energy transfer” Chem Biol 4(4): 269-77) in combination with instrumentation for measuring fluorescence changes such as the Voltage/Ion Probe Reader (VIPR) (See, Gonzalez, J. E., K. Oades, et al. (1999) “Cell-based assays and instrumentation for screening ion-channel targets” Drug Discov Today 4(9): 431-439).
# These voltage sensitive assays are based on the change in fluorescence resonant energy transfer (FRET) between the membrane-soluble, voltage-sensitive dye, DiSBAC2(3), and a fluorescent phospholipid, CC2-DMPE, which is attached to the outer leaflet of the plasma membrane and acts as a FRET donor. […] The changes in fluorescence emission were monitored using VIPR™ II, which is an integrated liquid handler and fluorescent detector designed to conduct cell-based screens in 96- or 384-well microtiter plates. […]
# T1 sequence (P13569 with tags, fused parts or gaps DEL508-508): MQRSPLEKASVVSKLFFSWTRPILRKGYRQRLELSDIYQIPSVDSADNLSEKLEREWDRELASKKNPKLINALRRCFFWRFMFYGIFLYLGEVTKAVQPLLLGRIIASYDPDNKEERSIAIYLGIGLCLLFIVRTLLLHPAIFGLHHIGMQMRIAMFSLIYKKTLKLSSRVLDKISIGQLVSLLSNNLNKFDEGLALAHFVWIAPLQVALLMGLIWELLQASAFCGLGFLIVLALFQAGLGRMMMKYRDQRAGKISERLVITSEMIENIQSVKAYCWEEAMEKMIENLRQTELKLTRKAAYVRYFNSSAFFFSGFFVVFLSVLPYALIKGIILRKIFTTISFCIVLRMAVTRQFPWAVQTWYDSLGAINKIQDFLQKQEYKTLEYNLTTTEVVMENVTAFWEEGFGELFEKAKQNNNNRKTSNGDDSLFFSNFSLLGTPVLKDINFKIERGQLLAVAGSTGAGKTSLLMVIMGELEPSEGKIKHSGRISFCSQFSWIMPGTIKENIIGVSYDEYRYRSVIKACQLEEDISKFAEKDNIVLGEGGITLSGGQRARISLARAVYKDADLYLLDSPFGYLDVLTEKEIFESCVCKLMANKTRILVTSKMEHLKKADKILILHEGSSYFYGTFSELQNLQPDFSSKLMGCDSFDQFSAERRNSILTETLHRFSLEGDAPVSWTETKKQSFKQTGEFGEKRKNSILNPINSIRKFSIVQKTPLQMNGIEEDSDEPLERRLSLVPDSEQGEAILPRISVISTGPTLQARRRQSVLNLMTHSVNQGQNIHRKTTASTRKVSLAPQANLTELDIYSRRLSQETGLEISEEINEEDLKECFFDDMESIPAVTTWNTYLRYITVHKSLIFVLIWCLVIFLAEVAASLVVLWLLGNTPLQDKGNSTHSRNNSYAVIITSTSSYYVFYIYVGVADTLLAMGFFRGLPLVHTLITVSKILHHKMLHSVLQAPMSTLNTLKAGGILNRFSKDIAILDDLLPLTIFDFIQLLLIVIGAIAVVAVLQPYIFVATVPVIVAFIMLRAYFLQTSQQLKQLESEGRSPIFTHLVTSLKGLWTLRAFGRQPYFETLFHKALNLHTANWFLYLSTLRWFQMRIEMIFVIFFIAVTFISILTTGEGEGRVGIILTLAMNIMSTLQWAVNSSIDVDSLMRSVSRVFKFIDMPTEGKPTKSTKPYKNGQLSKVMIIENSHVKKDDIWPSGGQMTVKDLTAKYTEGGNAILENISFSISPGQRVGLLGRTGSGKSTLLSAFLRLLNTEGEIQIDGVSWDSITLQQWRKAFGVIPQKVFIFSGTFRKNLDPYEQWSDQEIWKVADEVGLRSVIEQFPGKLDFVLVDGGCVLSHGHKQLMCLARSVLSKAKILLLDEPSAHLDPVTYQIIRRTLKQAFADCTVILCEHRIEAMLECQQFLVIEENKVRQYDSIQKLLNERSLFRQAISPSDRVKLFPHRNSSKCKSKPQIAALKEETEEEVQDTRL
compound,measurement,setting,value
"CC(C)(CO)c1cc2cc(NC(=O)C3(c4ccc5c(c4)OC(F)(F)O5)CC3)c(F)cc2n1C[C@@H](O)CO [Compound 1, (R)-1-(2,2-difluorobenzo[d][1,3]dioxol-5-yl)-N-(1-(2,3-dihydroxypropyl)-6-fluoro-2-(1-hydroxy-2-methylpropan-2-yl)-1H-indol-5-yl)cyclopropanecarboxamide]",EC50,"NIH3T3 mouse fibroblasts stably expressing ΔF508-CFTR, read-out: BinnedEC50",≤ 2000 nM
same,BinnedMaxEfficacy,PercentActivity bins,+++ (100.0 < +++)
